{"source": "ChEMBL document CHEMBL1201862", "about": "“PubChem BioAssay data set” (2004)", "key": {"[1]": {"target": "Endoplasmic reticulum aminopeptidase 1 (Homo sapiens, UniProt Q9NZ08)", "assay": "inhibition of human ERAP1 enzyme activity – biochemical, cherry-pick, set 2, plate reader, dose response (AID 743314)"}, "[2]": {"target": "Potassium channel subfamily K member 3 (Homo sapiens, UniProt O14649)", "assay": "inhibition of human KCNK3 channel flux – CHO cells, FluxOR thallium flux, SAR follow-up (AID 652212)", "format": "functional"}, "[3]": {"assay": "Late stage assay provider results from the probe development effort to identify selective inhibitors of heat shock protein 90 (HSP90): Absorbance-based cell proliferation assay in MCF7 cells.", "format": "functional"}, "[4]": {"assay": "Late stage assay provider results from the probe development effort to identify selective inhibitors of heat shock protein 90 (HSP90): Absorbance-based cell proliferation assay in SKBR3 cells.", "format": "functional", "settings": "SK-BR-3"}, "cells [5]": {"assay": "cells", "format": "functional, cell-based"}, "[6]": {"target": "Nuclear receptor subfamily 0 group B member 1 (Homo sapiens, UniProt P51843)", "format": "functional, cell-based"}, "Nonstructural protein 1": {"target": "Nonstructural protein 1 (Influenza A virus, UniProt Q194T2)", "format": "functional, Influenza A virus (A/California/07/2009(H1N1))"}, "Cytochrome P450 3A4": {"target": "Cytochrome P450 3A4 (Homo sapiens, UniProt P08684)"}, "fMet-Leu-Phe receptor": {"target": "fMet-Leu-Phe receptor (Homo sapiens, UniProt P21462)", "assay": "formyl peptide receptor binders – dose response (AID 519)", "format": "functional"}, "INS1": {"tested_on": "INS1", "assay": "INS-1E survival protection against cytokine death – cell-based, luminescence, retest, dose response (AID 449756);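 note: cell death triggered by IL-1 beta plus TNF-alpha plus IFN-gamma mixture; protective hits raise ATP signal compared with cytokine alone wells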", "format": "functional", "settings": "Rattus norvegicus"}, "Major prion protein": {"target": "Major prion protein (Homo sapiens, UniProt P04156)", "format": "functional, cell-based"}, "[7]": {"assay": "T. cruzi growth inhibition in host cells, dose response, cell-based, plate reader, dry powder, set 2 (AID 652275)", "format": "functional"}, "cells [8]": {"assay": "cells"}, "[9]": {"assay": "Trypanosoma cruzi growth suppression in host cells – NIH3T3 host cells, beta-gal luminescence, confirmation (AID 2044);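 note: intracellular parasites grown in NIH/3T3 mouse fibroblasts as host cells; luminescent beta-galactosidase reporter signal from transgenic T. cruzi replicating inside host cells; inhibitors lower the luminescence signal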", "format": "functional, cell-based"}, "[10]": {"assay": "HEK-293T cell viability reduction – luminescence, B-cell screen hits, cytotoxicity control for BCR NF-kB inhibitor project, dose response (AID 489021);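 note: HEK-293T cells carrying an NF-kB luciferase reporter; cells exposed to compound for about 14 hours before viability readout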", "format": "functional, cell-based"}, "[11]": {"assay": "fluconazole-exposed Candida albicans growth modulators – fluorescence, retest, confirmation (AID 2467)", "format": "functional, cell-based"}, "[12]": {"assay": "NIH-3T3 fibroblast cytotoxicity, dose response, cytotoxicity control, cell-based, fluorescence, Alamar Blue, secondary assay (AID 2327);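 note: NIH-3T3 mouse fibroblasts cultured with fluconazole at 8 µg/mL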", "format": "functional"}, "[13]": {"assay": "NIH3T3 cell viability loss – ATP luminescence, mouse fibroblasts, counter-screen, dose response (AID 2010);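 note: cells exposed to compound for about 90 hours before reading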", "format": "functional, cell-based"}, "[14]": {"target": "COUP transcription factor 2 (Homo sapiens, UniProt P24468)", "assay": "Luminescence-based cell-based high throughput dose response assay to identify inhibitors of COUP-TFII (NR2F2).", "format": "functional"}}, "note": "Calls of active or inactive are those of the source.", "data": [{"molecule": "C[C@H](CO)N1C[C@H](C)[C@H](CN(C)C(=O)Nc2ccccc2)Oc2ncccc2C1=O", "values": [{"measurement": "AC50", "setting": "[1]", "result": "12.3 µM (active)"}]}, {"molecule": "COc1ccc(C(=O)Nc2cccc(NC(=O)c3ccccc3)c2)cc1", "values": [{"measurement": "IC50", "setting": "[2]", "result": "4.46 µM (active)"}]}, {"molecule": "CCCCOc1cccc(NC(=O)c2coc(=O)c(Br)c2)c1", "values": [{"measurement": "IC50", "setting": "[3]", "result": "22.8 µM (inactive)"}, {"measurement": "IC50", "setting": "[4]", "result": "32.9 µM (inactive)"}]}, {"molecule": "COc1ccccc1OCc1cc(C(=O)N(C)CCC2CCCCO2)no1", "note": "(stereo not given)", "values": [{"measurement": "IC50", "setting": "cells [5]", "result": "> 67.5 µM (inactive)"}, {"measurement": "IC50", "setting": "[6]", "result": "> 67.5 µM (inactive)"}]}, {"molecule": "Nc1ccc(Nc2ccccc2)cc1", "values": [{"measurement": "IC50", "setting": "Nonstructural protein 1", "result": "45.3 µM (active)"}, {"measurement": "AC50", "setting": "Cytochrome P450 3A4", "result": "20 µM (inconclusive)"}, {"measurement": "Ki", "setting": "fMet-Leu-Phe receptor", "result": "> 66.7 µM (inactive)"}, {"measurement": "AC50", "setting": "INS1", "result": "7.64 µM (active)"}]}, {"molecule": "CSc1nc(-c2cccs2)c(C#N)c(=O)[nH]1", "values": [{"measurement": "IC50", "setting": "Major prion protein", "result": "3.22 µM (active)"}]}, {"molecule": "O=C(Cn1ccnc1[N+](=O)[O-])NCc1ccccc1", "note": "[BENZNIDAZOLE]", "values": [{"measurement": "AC50", "setting": "[7]", "result": "0.153 µM (active)"}]}, {"molecule": "CSc1nc(O)c(C#N)c(-c2cccs2)n1", "values": [{"measurement": "IC50", "setting": "cells [8]", "result": "> 138 µM (inactive)"}]}, {"molecule": "CCOc1ccc(-[n+]2c(-c3ccccc3)cn3c2CCCCC3)cc1", "values": [{"measurement": "EC50", "setting": "[9]", "result": "0.534 µM (active)"}, {"measurement": "IC50", "setting": "[10]", "result": "> 80 µM (inactive)"}, {"measurement": "EC50", "setting": "[11]", "result": "16.3 µM (active)"}, {"measurement": "EC50", "setting": "[12]", "result": "> 150 µM (inactive)"}, {"measurement": "AC50", "setting": "INS1", "result": "0.822 µM (active)"}, {"measurement": "EC50", "setting": "[13]", "result": "7 µM (active)"}, {"measurement": "IC50", "setting": "[14]", "result": "8.69 µM (active)"}]}]}
